Results from ChEMBL document CHEMBL1201862, “PubChem BioAssay data set” (2004).
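Method: 48-hour compound exposure of cells in 96-well plates, five concentrations, linear interpolation of endpoints. GI50: concentration for 50% inhibition of growth.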 Active and inactive are the calls of the source. Cut-off read from the data, not from the text of the source: active = GI50 up to about 1.1 µM and inactive = higher.

How the values were obtained:
Experiment in all cases: growth of human tumour cells (NCI), 48 h
[1] = test system: Malme-3M
[2] = test system: MDA-MB-231
[3] = test system: SF-268
[4] = test system: UACC-257
[5] = test system: SK-MEL-5
[6] = test system: NCI/ADR-RES
[7] = test system: M14
[8] = test system: HCC 2998
[9] = test system: HCT-116
[10] = test system: SF-539
[11] = test system: SNB-19
[12] = test system: SK-MEL-28
[13] = test system: RXF 393
[14] = test system: TK-10
[15] = test system: HOP-92
[16] = test system: HT-29
[17] = test system: CCRF-CEM
[18] = test system: NCI-H23
[19] = test system: NCI-H226
[20] = test system: A498
[21] = test system: Hs-578T
[22] = test system: OVCAR-3
[23] = test system: KM12
[24] = test system: SW-620
[25] = test system: LOX IMVI
[26] = test system: OVCAR-5
[27] = test system: NCI-H460
[28] = test system: IGROV-1
[29] = test system: BT-549
[30] = test system: ACHN
[31] = test system: SN12C
[32] = test system: A549
[33] = test system: DU-145
[34] = test system: UO-31
[35] = test system: OVCAR-8
[36] = test system: SK-OV-3
[37] = test system: OVCAR-4
[38] = test system: COLO 205
[39] = test system: HL-60
[40] = test system: UACC-62
[41] = test system: K562
[42] = test system: RPMI-8226
[43] = test system: EKVX
[44] = test system: NCI-H522
[45] = test system: SF-295
[46] = test system: 786-0
[47] = test system: PC-3
[48] = test system: MCF7
[49] = test system: T47D
[50] = test system: HCT-15
[51] = test system: MOLT-4
[52] = test system: SK-MEL-2
[53] = test system: HOP-62
[54] = test system: SR
[55] = test system: CAKI-1
[56] = test system: SNB-75
[57] = test system: MDA-MB-435
[58] = test system: U-251

## OCc1ccc2c(c1)CC1(C2)Cc2cc3c(cc2C1O)CCC3 (stereo unspecified)
[1]
  GI50: 5.01 µM (inactive)
[2]
  GI50: 2.65 µM (inactive)
[3]
  GI50: 10.9 µM (inactive)
[4]
  GI50: 2.3 µM (inactive)
[5]
  GI50: 3.04 µM (inactive)
[6]
  GI50: 2.58 µM (inactive)
[7]
  GI50: 3.4 µM (inactive)
[8]
  GI50: 6.55 µM (inactive)
[9]
  GI50: 3.37 µM (inactive)
[10]
  GI50: 3.5 µM (inactive)
[11]
  GI50: 4.97 µM (inactive)
[12]
  GI50: 6.34 µM (inactive)
[13]
  GI50: 2.77 µM (inactive)
[14]
  GI50: 21.9 µM (inactive)
[15]
  GI50: 12.2 µM (inactive)
[16]
  GI50: 3.27 µM (inactive)
[17]
  GI50: 4.01 µM (inactive)
[18]
  GI50: 5.35 µM (inactive)
[19]
  GI50: 7.31 µM (inactive)
[20]
  GI50: 4.44 µM (inactive)
[21]
  GI50: 2.71 µM (inactive)
[22]
  GI50: 4.78 µM (inactive)
[23]
  GI50: 2.87 µM (inactive)
[24]
  GI50: 4.55 µM (inactive)
[25]
  GI50: 5.18 µM (inactive)
[26]
  GI50: 18.9 µM (inactive)
[27]
  GI50: 3.28 µM (inactive)
[28]
  GI50: 4.84 µM (inactive)
[29]
  GI50: 2.86 µM (inactive)
[30]
  GI50: 6.67 µM (inactive)
[31]
  GI50: 3.22 µM (inactive)
[32]
  GI50: 6.43 µM (inactive)
[33]
  GI50: 9.1 µM (inactive)
[34]
  GI50: 5.9 µM (inactive)
[35]
  GI50: 5.74 µM (inactive)
[36]
  GI50: 8.75 µM (inactive)
[37]
  GI50: 10.4 µM (inactive)
[38]
  GI50: 3.17 µM (inactive)
[39]
  GI50: 2.2 µM (inactive)
[40]
  GI50: 3.72 µM (inactive)
[41]
  GI50: 1.58 µM (inactive)
[42]
  GI50: 3.18 µM (inactive)
[43]
  GI50: 10.1 µM (inactive)
[44]
  GI50: 3.23 µM (inactive)
[45]
  GI50: 2.2 µM (inactive)
[46]
  GI50: 5.64 µM (inactive)
[47]
  GI50: 2.34 µM (inactive)
[48]
  GI50: 3.66 µM (inactive)
[49]
  GI50: 1.36 µM (inactive)
[50]
  GI50: 3.36 µM
[51]
  GI50: 4.09 µM (inactive)
[52]
  GI50: 3.33 µM (inactive)
[53]
  GI50: 4.49 µM (inactive)
[54]
  GI50: 2.33 µM (inactive)
[55]
  GI50: 5.25 µM (inactive)
[56]
  GI50: 3.85 µM (inactive)
[57]
  GI50: 0.65 µM (active)
[58]
  GI50: 3.3 µM (inactive)

## Cn1ccnc1Sc1ccc(/C=N\NC(=O)c2cccc(F)c2)cc1[N+](=O)[O-]
[1]
  GI50: > 100 µM (inactive)
[2]
  GI50: 80.2 µM (inactive)
[3]
  GI50: 24 µM (inactive)
[4]
  GI50: > 100 µM (inactive)
[5]
  GI50: 56.4 µM (inactive)
[6]
  GI50: 79.3 µM (inactive)
[7]
  GI50: > 100 µM (inactive)
[8]
  GI50: > 100 µM (inactive)
[9]
  GI50: 83.9 µM (inactive)
[10]
  GI50: 25.9 µM (inactive)
[11]
  GI50: 27.8 µM (inactive)
[12]
  GI50: 79.4 µM (inactive)
[13]
  GI50: 34.8 µM (inactive)
[14]
  GI50: > 100 µM (inactive)
[15]
  GI50: 22.7 µM (inactive)
[16]
  GI50: > 100 µM (inactive)
[17]
  GI50: > 100 µM (inactive)
[18]
  GI50: 47.2 µM (inactive)
[19]
  GI50: > 100 µM (inactive)
[20]
  GI50: 29.8 µM (inactive)
[21]
  GI50: 24.2 µM (inactive)
[22]
  GI50: 50 µM (inactive)
[23]
  GI50: > 100 µM (inactive)
[24]
  GI50: > 100 µM (inactive)
[25]
  GI50: > 100 µM (inactive)
[26]
  GI50: > 100 µM (inactive)
[27]
  GI50: > 100 µM (inactive)
[28]
  GI50: 18.8 µM (inactive)
[29]
  GI50: 40.8 µM (inactive)
[30]
  GI50: > 100 µM (inactive)
[31]
  GI50: 50.1 µM (inactive)
[32]
  GI50: 69.3 µM (inactive)
[33]
  GI50: 71.6 µM (inactive)
[34]
  GI50: > 100 µM (inactive)
[35]
  GI50: 21.7 µM (inactive)
[36]
  GI50: 33.5 µM (inactive)
[37]
  GI50: 25.3 µM (inactive)
[38]
  GI50: > 100 µM (inactive)
[39]
  GI50: > 100 µM (inactive)
[40]
  GI50: 89.1 µM (inactive)
[41]
  GI50: > 100 µM (inactive)
[42]
  GI50: > 100 µM (inactive)
[43]
  GI50: 45.1 µM (inactive)
[44]
  GI50: 24.7 µM (inactive)
[45]
  GI50: 35.9 µM (inactive)
[46]
  GI50: 31.9 µM (inactive)
[47]
  GI50: 24 µM (inactive)
[48]
  GI50: 27.8 µM (inactive)
[49]
  GI50: 36.1 µM (inactive)
[50]
  GI50: 78.7 µM
[51]
  GI50: > 100 µM (inactive)
[52]
  GI50: 30.8 µM (inactive)
[53]
  GI50: 37.3 µM (inactive)
[54]
  GI50: 33.2 µM (inactive)
[55]
  GI50: > 100 µM (inactive)
[56]
  GI50: 27 µM (inactive)
[57]
  GI50: 61.1 µM (inactive)
[58]
  GI50: 21.1 µM (inactive)
